Legend:
Format in all cases: in vivo
[1] = system: ragweed (common ragweed, Ambrosia elatior); assay: Test A postemergence, ragweed; conditions: 0 to 100 scale; for Plant response rating, Ragweed: 0 no effect, 100 complete control
Description: (§1) Seeds of plant species selected from barnyardgrass (Echinochloa crus-galli), kochia (Kochia scoparia), ragweed (common ragweed, Ambrosia elatior), ryegrass, Italian (Lolium multiflorum), foxtail, giant (Setaria faberii), foxtail, green (Setaria viridis), and pigweed (Amaranthus retroflexus) were planted into a blend of loam soil and sand and treated preemergence with a directed soil spray using test chemicals formulated in a non-phytotoxic solvent mixture which included a surfactant.
(§2) At the same time, plants selected from these weed species and also wheat (Triticum aestivum), corn (Zea mays), blackgrass (Alopecurus myosuroides), and galium (catchweed bedstraw, Galium aparine) were planted in pots containing the same blend of loam soil and sand and treated with postemergence applications of test chemicals formulated in the same manner. Plants ranged in height from 2 to 10 cm and were in the one- to two-leaf stage for the postemergence treatment. Treated plants and untreated controls were maintained in a greenhouse for approximately 10 d, after which time all treated plants were compared to untreated controls and visually evaluated for injury. Plant response ratings, summarized in Table A, are based on a 0 to 100 scale where 0 is no effect and 100 is complete control. A dash (-) response means no test result.

kochia (Kochia scoparia) [2] = assay: Test A preemergence, kochia; conditions: 0 to 100 scale, 0 is no effect, 100 is complete control
Description: as §1, §2

[3] = system: foxtail, giant (Setaria faberii); assay: Test A postemergence, giant foxtail; conditions: 0 to 100 scale; for Plant response rating, Foxtail, Giant: 0 no effect, 100 complete control
Description: as §1, §2

[4] = system: barnyardgrass (Echinochloa crus-galli); assay: Test A postemergence, barnyardgrass; conditions: 0 to 100 scale; for Plant response rating, Barnyardgrass: 0 no effect, 100 complete control
Description: as §1, §2

[5] = system: ragweed (common ragweed, Ambrosia elatior); assay: Test A preemergence, ragweed; conditions: 0 to 100 scale, 0 is no effect, 100 is complete control
Description: as §1, §2

kochia (Kochia scoparia) [6] = assay: Test A postemergence, kochia; conditions: 0 to 100 scale; for Plant response rating, Kochia: 0 no effect, 100 complete control
Description: as §1, §2

corn (Zea mays) = assay: Test A postemergence, corn; conditions: 0 to 100 scale; for Plant response rating, Corn: 0 no effect, 100 complete control
Description: as §1, §2

[7] = system: ryegrass, Italian (Lolium multiflorum); assay: Test A postemergence, Italian ryegrass; conditions: 0 to 100 scale; for Plant response rating, Ryegrass, Italian: 0 no effect, 100 complete control
Description: as §1, §2

[8] = system: wheat (Triticum aestivum); assay: Test A postemergence, wheat; conditions: 0 to 100 scale; for Plant response rating, Wheat: 0 no effect, 100 complete control
Description: as §1, §2

[9] = system: foxtail, giant (Setaria faberii); assay: Test A preemergence, giant foxtail; conditions: 0 to 100 scale, 0 is no effect, 100 is complete control
Description: as §1, §2

[10] = system: blackgrass (Alopecurus myosuroides); assay: Test A postemergence, blackgrass; conditions: 0 to 100 scale; for Plant response rating, Blackgrass: 0 no effect, 100 complete control
Description: as §1, §2

[11] = system: pigweed (Amaranthus retroflexus); assay: Test A preemergence, pigweed; conditions: 0 to 100 scale, 0 is no effect, 100 is complete control
Description: as §1, §2

[12] = system: ryegrass, Italian (Lolium multiflorum); assay: Test A preemergence, Italian ryegrass; conditions: 0 to 100 scale, 0 is no effect, 100 is complete control
Description: as §1, §2

[13] = system: pigweed (Amaranthus retroflexus); assay: Test A postemergence, pigweed; conditions: 0 to 100 scale; for Plant response rating, Pigweed: 0 no effect, 100 complete control
Description: as §1, §2

[14] = system: galium (catchweed bedstraw, Galium aparine); assay: Test A postemergence, galium; conditions: 0 to 100 scale; for Plant response rating, Galium: 0 no effect, 100 complete control
Description: as §1, §2

[15] = system: barnyardgrass (Echinochloa crus-galli); assay: Test A preemergence, barnyardgrass; conditions: 0 to 100 scale, 0 is no effect, 100 is complete control
Description: as §1, §2

[16] = 1000 g ai/ha, 0 is no effect, 100 is complete control

C[C@@H](Nc1nc(N)cc(C(F)(F)F)n1)c1cc2ccccc2s1 [Compound 97]
0: Ragweed plant response rating [1, 16] | Kochia plant response rating (kochia (Kochia scoparia) [2]; 1000 g ai/ha) | Foxtail, Giant plant response rating [3, 16] | Barnyardgrass plant response rating [4, 16] | Ragweed plant response rating ([5]; 1000 g ai/ha) | Corn plant response rating (corn (Zea mays); [16]) | Ryegrass, Italian plant response rating [7, 16] | Wheat plant response rating [8, 16] | Foxtail, Giant plant response rating ([9]; 1000 g ai/ha) | Blackgrass plant response rating [10, 16] | Pigweed plant response rating ([11]; 1000 g ai/ha) | Ryegrass, Italian plant response rating ([12]; 1000 g ai/ha) | Pigweed plant response rating [13, 16] | Barnyardgrass plant response rating ([15]; 1000 g ai/ha)
20: Kochia plant response rating (kochia (Kochia scoparia) [6]; [16]) | Galium plant response rating [14, 16]

Cc1cccc2oc(C(C)Nc3ncc(C(F)(F)F)c(N)n3)cc12 (centres unmarked) [Compound 101]
80: Plant response rating, Galium ([14]; 125 g ai/ha)
70: Ragweed plant response rating ([5]; 125 g ai/ha) | Plant response rating, Kochia (kochia (Kochia scoparia) [6]; 125 g ai/ha) | Plant response rating, Ryegrass, Italian ([7]; 500 g ai/ha) | Plant response rating, Blackgrass ([10]; 500 g ai/ha) | Pigweed plant response rating ([11]; 125 g ai/ha)
90: Kochia plant response rating (kochia (Kochia scoparia) [2]; 125 g ai/ha) | Kochia plant response rating (kochia (Kochia scoparia) [2]; 500 g ai/ha) | Ryegrass, Italian plant response rating ([12]; 500 g ai/ha) | Plant response rating, Galium ([14]; 500 g ai/ha) | Barnyardgrass plant response rating ([15]; 125 g ai/ha) | Barnyardgrass plant response rating ([15]; 500 g ai/ha)
0: Plant response rating, Corn (corn (Zea mays); 125 g ai/ha) | Plant response rating, Wheat ([8]; 125 g ai/ha)
40: Plant response rating, Corn (corn (Zea mays); 500 g ai/ha) | Plant response rating, Wheat ([8]; 500 g ai/ha)
20: Plant response rating, Blackgrass ([10]; 125 g ai/ha)
30: Plant response rating, Ragweed ([1]; 125 g ai/ha) | Plant response rating, Barnyardgrass ([4]; 125 g ai/ha) | Ryegrass, Italian plant response rating ([12]; 125 g ai/ha)
10: Plant response rating, Foxtail, Giant ([3]; 125 g ai/ha)
100: Plant response rating, Ragweed ([1]; 500 g ai/ha) | Plant response rating, Foxtail, Giant ([3]; 500 g ai/ha) | Plant response rating, Barnyardgrass ([4]; 500 g ai/ha) | Ragweed plant response rating ([5]; 500 g ai/ha) | Plant response rating, Kochia (kochia (Kochia scoparia) [6]; 500 g ai/ha) | Foxtail, Giant plant response rating ([9]; 125 g ai/ha) | Foxtail, Giant plant response rating ([9]; 500 g ai/ha) | Pigweed plant response rating ([11]; 500 g ai/ha) | Plant response rating, Pigweed ([13]; 125 g ai/ha) | Plant response rating, Pigweed ([13]; 500 g ai/ha)
60: Plant response rating, Ryegrass, Italian ([7]; 125 g ai/ha)

CC(Nc1ncc(C(F)(F)F)c(N)n1)c1cc2c(Br)cccc2o1 (centres unmarked) [Compound 102]
10: Plant response rating, Barnyardgrass ([4]; 125 g ai/ha)
30: Plant response rating, Ragweed ([1]; 125 g ai/ha) | Plant response rating, Ryegrass, Italian ([7]; 500 g ai/ha) | Ryegrass, Italian plant response rating ([12]; 125 g ai/ha) | Barnyardgrass plant response rating ([15]; 125 g ai/ha)
90: Kochia plant response rating (kochia (Kochia scoparia) [2]; 500 g ai/ha) | Plant response rating, Kochia (kochia (Kochia scoparia) [6]; 500 g ai/ha)
70: Kochia plant response rating (kochia (Kochia scoparia) [2]; 125 g ai/ha) | Plant response rating, Barnyardgrass ([4]; 500 g ai/ha) | Plant response rating, Kochia (kochia (Kochia scoparia) [6]; 125 g ai/ha)
100: Plant response rating, Ragweed ([1]; 500 g ai/ha) | Foxtail, Giant plant response rating ([9]; 500 g ai/ha) | Pigweed plant response rating ([11]; 125 g ai/ha) | Pigweed plant response rating ([11]; 500 g ai/ha) | Plant response rating, Pigweed ([13]; 125 g ai/ha) | Plant response rating, Pigweed ([13]; 500 g ai/ha) | Plant response rating, Galium ([14]; 125 g ai/ha) | Plant response rating, Galium ([14]; 500 g ai/ha)
20: Plant response rating, Foxtail, Giant ([3]; 500 g ai/ha) | Plant response rating, Corn (corn (Zea mays); 500 g ai/ha)
0: Plant response rating, Foxtail, Giant ([3]; 125 g ai/ha) | Plant response rating, Corn (corn (Zea mays); 125 g ai/ha) | Plant response rating, Ryegrass, Italian ([7]; 125 g ai/ha) | Plant response rating, Wheat ([8]; 125 g ai/ha) | Plant response rating, Blackgrass ([10]; 125 g ai/ha)
80: Ragweed plant response rating ([5]; 500 g ai/ha) | Foxtail, Giant plant response rating ([9]; 125 g ai/ha) | Barnyardgrass plant response rating ([15]; 500 g ai/ha)
60: Ryegrass, Italian plant response rating ([12]; 500 g ai/ha)
50: Ragweed plant response rating ([5]; 125 g ai/ha)
40: Plant response rating, Wheat ([8]; 500 g ai/ha) | Plant response rating, Blackgrass ([10]; 500 g ai/ha)

— patent publication US20220119354A1, “DIAMINO-SUBSTITUTED PYRIDINES AND PYRIMIDINES AS HERBICIDES” (FMC Corporation, priority 2019, published 2022)
